According to publication PMC10817097, “Caffeic Acid Phosphanium Derivatives: Potential Selective Antitumor, Antimicrobial and Antiprotozoal Agents” (International Journal of Molecular Sciences, 2024):
Converted amounts (≈) assume the structure as drawn.

Experiments:
Type in all cases: cell-based
[1] = tested on: Staphylococcus aureus (MR) CCM 4750; test: Broth microdilution MIC and MBC; settings: for MIC: CCM4750, S. aureus methicillin-resistant CCM 4750; for MBC: CCM4750, S. aureus methicillin-resistant CCM 4750, inactivating 99.9% of inoculum
Experimental: (§1) The antimicrobial activity of caffeic acid and its semi-synthetic derivates was tested against Gram-positive (Staphylococcus aureus CCM 4750, methicillin-resistant; Staphylococcus aureus CCM 4223, methicillin-susceptible; Enterococcus faecalis CCM 4224) and Gram-negative bacteria (Pseudomonas aeruginosa CCM 3955; Escherichia coli CCM 3954; Klebsiella pneumoniae CCM 4415; Proteus mirabilis CCM 7188), and one strain of a yeast Candida albicans (CCM 8267). Microbial strains were purchased from the Czech Collection of Microorganisms, Brno, Czech Republic, and preserved in aliquots in cryoprotective media at −20 °C until the testing. Revival of cryoprotected bacteria took place by overnight cultivation on blood agar and an additional passage on blood agar. Minimal inhibitory concentrations (MIC) against bacteria were detected by broth microdilution test in sterile 96-well U-shaped microtiter plates (Roll s.a.s., Piove di Sacco, Italy) according to the EUCAST recommendations. The test was performed in 100 μL volumes in microtiter plate wells with a final bacterial concentration of 5 × 10^5 CFU·mL^−1. Antifungal activity testing was performed according to the EUCAST-recommended method for the determination of broth dilution minimum inhibitory concentrations of antifungal agents for yeasts, with some modifications. The final yeast concentration in the test wells was 10^4 CFU·mL^−1. The minimal bactericidal/fungicidal concentrations (MBC/MFC) were detected by point-inoculation of 5 μL aliquots from test wells without visible growth on solid agar media free of antimicrobials. Mueller–Hinton broth and agar were used for bacteria, and Sabouraud dextrose broth and agar for fungi (OXOID, Basingstoke, Hampshire, UK). The tested agents were dissolved in 50% ethanol, and serial dilutions were prepared in the test medium to obtain final concentrations ranging from 5000 to 5 μg·mL^−1, which corresponds to 27,753—54 μM for caffeic acid, 7251—14 μM for CAP 6, 6967—14 μM for CAP 8, 6705—13 μM for CAP 10 and 6462—13 μM for CAP 12. Wells with media free of bacteria served as sterility control and wells with bacteria without antimicrobial agents were used as growth control. The MIC was determined to be the lowest concentration of the antimicrobial agent inhibiting the growth of the tested microorganism, and the MBC/MFC was determined to be the lowest concentration, inactivating 99.9% of microbial inoculum. All tests were performed in three independent runs to exclude possible excessive values due to permissible measurement error.

[2] = tested on: Proteus mirabilis CCM 7188; test: Broth microdilution MIC and MBC; settings: for MIC: CCM7188, P. mirabilis CCM 7188; for MBC: CCM7188, P. mirabilis CCM 7188, inactivating 99.9% of inoculum
Experimental: as §1

[3] = tested on: Pseudomonas aeruginosa CCM 3955; test: Broth microdilution MIC and MBC; settings: for MIC / MBC: Pseudomonas aeruginosa, CCM3955, P. aeruginosa CCM 3955; for MBC: inactivating 99.9% of inoculum
Experimental: as §1

[4] = tested on: Escherichia coli CCM 3954; test: Broth microdilution MIC and MBC; settings: for MIC: CCM3954, E. coli CCM 3954; for MBC: CCM3954, E. coli CCM 3954, inactivating 99.9% of inoculum
Experimental: as §1

tested cancer cell lines = test: MTS assay, span over the tested cell lines; settings: Homo sapiens, 72 h
Experimental: The human cancer cell line HCT116 (human colorectal adenocarcinoma), HeLa (human cervical adenocarcinoma), Jurkat (human leukemic T cell lymphoma), and MDA-MB-231 (human mammary gland adenocarcinoma, triple-negative) were cultured in RPMI 1640 medium (Biosera, Kansas City, MO, USA). MCF-7 (human breast adenocarcinoma), A2058 (human metastatic melanoma), PANC-1 (human pancreatic adenocarcinoma), and NIH 3T3 (murine fibroblasts) cell lines were maintained in a growth medium consisting of high glucose Dulbecco’s Modified Eagle Medium with sodium pyruvate (Biosera, Kansas City, MO, USA). MCF-10A cell line (human mammary gland epithelial cells) was maintained in a growth medium consisting of high glucose DMEM F12 Medium (Biosera, Kansas City, MO, USA) + Suppl. (insulin, EGF-[…], HC-hydrocortisone, choleratoxin all Sigma, Steinheim, Germany). The growth medium was supplemented with a 10% fetal bovine serum, penicillin (100 IU/mL), and streptomycin (100 μg/mL) (all Invitrogen, Carlsbad, CA, USA), and cells were maintained in an atmosphere containing 5% CO2 in humidified air at 37 °C. Cell viability, estimated by trypan exclusion, was greater than 95% before each experiment.
The metabolic activity colorimetric assay (MTS) was used to determine the effects of CA (c = 10–300 µM) and compounds CAP 6, CAP 8, CAP 10, and CAP 12 (c = 1–100 µM) on the metabolic activity of several cell lines. After 72 h of incubation, 10 µL of MTS (Promega, Madison, WI, USA) was added to each well according to the CellTiter 96® AQueous One Solution Cell Proliferation Assay protocol. After a minimum of 1 h incubation, the absorbance was measured at 490 nm using the automated Cytation^TM 3 Cell Imaging Multi-Mode Reader (Biotek, Winooski, VT, USA). The absorbance of the control wells was taken as 1.0 (100%), and the results were expressed as a fold of the control. All experiments were performed in triplicate. Ideal predictive IC50 values were calculated from MTS analyses-based concentration concentration-dependent trends.

[5] = tested on: A. lugdunensis (AcaVNAK02); test: Amoebicidal activity assay on trophozoites; settings: Acanthamoeba lugdunensis, 24 h of incubation
Experimental: The activity against two clinical isolates of free-living amoebae, Acanthamoeba lugdunensis (strain AcaVNAK02) and Acanthamoeba quina (strain AcaVNAK03), both belonging to the T4 genotype, was tested in vitro as previously described. The trophozoites were cultivated in 25 cm^2 tissue culture flasks under axenic conditions in peptone-yeast extract-glucose medium (PYG). The cultivation was carried out under aerobic conditions at laboratory temperature. For the experiments, a fresh 72 h culture was used. Acanthamoebae adherent to flasks represented the trophozoite form and was used in the subsequent assay. Experiments were carried out in 96-well microtiter plates under sterile conditions at 37 °C. Each well was seeded with 100 µL (2 × 10^5 cells mL^−1) of a trophozoite suspension. Then, 100 µL of a freshly prepared medium containing a tested compound at 6 different concentrations was added to all wells, except for the untreated control wells that received 100 µL of the pure medium. Each compound was tested at final concentrations of 500, 250, 125, 62.5, 31.25, and 15.6 µM. The reduction of trophozoites was recorded after 24 h by counting the surviving cells in a Bürker–Türk hemocytometer. The growth control after 24 h (amoebae in inoculum without treatment): A. lugdunensis (AcaVNAK02): 2.5 × 10^5 cells mL^−1, A. quina (AcaVNAK03): 2.1 × 10^5cells/mL comparing to initial inoculum 1 × 10^5 cells mL^−1. The viability of trophozoites was determined by trypan blue exclusion. The EC50 (effective concentration of tested compound that reduces the survival of amoebae by 50%) values were calculated by linear regression analysis using Microsoft Office Excel 2016 (Microsoft Corporation, Redmond, WA, USA) software. All experiments were performed in quadruplicate for each concentration.

MIC [1] | MIC [2] | MIC/MBC ([3]; P. aeruginosa, corresponding to the μM value) | MIC [3] | MIC [4] | IC50 (tested cancer cell lines) | SMILES | MBC [1] | MBC [2] | MBC [3] | MBC [4] | EC50 [5]
6940 µM (≈ 1250 µg/mL) | 6940 µM (≈ 1250 µg/mL) | 625 µg/mL (≈ 3.47 mM) | 3470 µM (≈ 625 µg/mL) | 6940 µM (≈ 1250 µg/mL) | > 300 µM | O=C(O)C=Cc1ccc(O)c(O)c1 [CA, 3-(3,4-dihydroxyphenyl)-2-propenoic acid, reference compound] | 13900 µM (≈ 2500 µg/mL) | 6940 µM (≈ 1250 µg/mL) | 3470 µM (≈ 625 µg/mL) | 13900 µM (≈ 2500 µg/mL) | > 100000 µM
14 µM | 453 µM | – | 453 µM | 227 µM | 30.5 to 44.5 µM | CC(=O)Oc1ccc(/C=C/C(=O)OCCCCCC[P+](c2ccccc2)(c2ccccc2)c2ccccc2)cc1OC(C)=O [CAP 6, P,P,P-triphenyl-6-{(2E)-3-[3,4-(diacetyloxy)penyl]prop-2-enoyloxy}hexane-1-phosphanium bromide] | 14 µM | 453 µM | 453 µM | 227 µM | 74.2 ± 18.4 µM
27 µM | 218 µM | – | 871 µM | 435 µM | 4.8 to 9.4 µM | CC(=O)Oc1ccc(/C=C/C(=O)OCCCCCCCC[P+](c2ccccc2)(c2ccccc2)c2ccccc2)cc1OC(C)=O [CAP 8, P,P,P-triphenyl-8-{(2E)-3-[3,4-(diacetyloxy)penyl]prop-2-enoyloxy}okctane-1-phosphanium bromide] | 27 µM | 435 µM | 871 µM | 435 µM | 99.8 ± 23.7 µM
13 µM | 210 µM | – | 838 µM | 419 µM | 0.9 to 9.5 µM | CC(=O)Oc1ccc(/C=C/C(=O)OCCCCCCCCCC[P+](c2ccccc2)(c2ccccc2)c2ccccc2)cc1OC(C)=O [CAP 10, P,P,P-triphenyl-10-{(2E)-3-[3,4-(diacetyloxy)penyl]prop-2-enoyloxy}decane-1-phosphanium bromide] | 26 µM | 419 µM | 676 µM | 419 µM | 834 ± 303 µM
25 µM | 404 µM | – | 404 µM | 808 µM | 0.9 to 9.5 µM | CC(=O)Oc1ccc(/C=C/C(=O)OCCCCCCCCCCCC[P+](c2ccccc2)(c2ccccc2)c2ccccc2)cc1OC(C)=O [CAP 12, P,P,P-triphenyl-12-{(2E)-3-[3,4-(diacetyloxy)penyl]prop-2-enoyloxy}dodecane-1-phosphanium bromide] | 25 µM | 404 µM | 808 µM | 808 µM | 3120 ± 941 µM
